# Laboratory results from patent publication US20250064789A1, “KETOAMIDE DERIVATIVES AND PHARMACEUTICAL USES THEREOF” (priority 2022, published 2025).
# Assays:
# [1] = molecular target: hERG potassium ion channels (Homo sapiens (Human), UniProt Q12809); test: hERG potassium current, whole cell patch clamp in HEK-293-hERG cells; settings: 0.1 μM
# Vero E6 cells = test: Cytotoxic assay against Vero E6 cells (MTT, 72 h); type: cell-based
# Protocol: (§1) The cytotoxicity assessment of compounds was performed against Vero E6 cells. The specific experimental procedures: Vero E6 cells were seeded into a 96-well plate at a cell density of 2×10^4 cells/well, with 100 μL/well, and then incubated overnight at 37° C. in a 5% CO2 incubator. The next day, 100 μL of drug-containing medium was added to each well. The compound was diluted in a 2-fold serial dilution with a top concentration of […], for a total of 6 gradients. Three repeated wells were set for each concentration, and negative controls and blank controls without drugs were included for each experiment. […] All experimental data were analyzed using GraphPad Prism software.
# [2] = test system: BEAS-2B cells (normal human bronchial epithelial cells); test: Cytotoxic assay against human BEAS-2B cells (MTT, 72 h); type: cell-based
# Protocol: (§2) BEAS-2B cells (normal human bronchial epithelial cells) and HUVEC cells (human umbilical vein endothelial cells) were used to evaluate the cytotoxicity of compounds against human-derived cells. The detailed experimental procedures: BEAS-2B cells or HUVEC cells were seeded into a 96-well plate at a cell density of 2×10^4 cells/well, that is, 100 µL/well, and then incubated overnight at 37° C. in a 5% CO2 incubator. The next day, 100 μL of drug-containing medium was added to each well. The compound was diluted in a 2-fold serial dilution with a top concentration of […], for a total of 6 gradients. Three repeated wells were set for each concentration, and negative controls and blank controls without drugs were included for each experiment. […] All experimental data were analyzed using GraphPad Prism software.
# [3] = test system: HUVEC cells (human umbilical vein endothelial cells); test: Cytotoxic assay against HUVEC cells (MTT, 72 h); type: cell-based
# Protocol: as §2
# [4] = Metabolic stability using human liver microsomes; type: in vitro ADME; settings: 37° C.; for Human liver microsomes T1/2: NADPH; for half-life at 1 µM: pH 7.4, NADPH, read-out: Human liver microsomes T1/2
# [5] = male, Sprague-Dawley, rat, in vivo, iv, 1 mg/kg
# in vivo = settings: male, Sprague-Dawley, rat
# [6] = In vivo pharmacokinetic properties in rats; settings: SD rats
# [7] = molecular target: recombinant SARS-CoV-2 M^pro (Severe acute respiratory syndrome coronavirus 2 (2019-nCoV) (SARS-CoV-2), UniProt P0DTD1); test: Inhibition of SARS-CoV-2 M^pro enzyme activity (fluorescent substrate assay); type: biochemical; settings: inhibition of SARS-CoV-2 M^pro enzyme activity; values in nM; read-out: IC50
# [8] = Cytotoxic assay against Vero E6 cells (MTT, 72 h); type: cell-based; settings: African green monkey
# Protocol: as §1
# [9] = Cytotoxic assay against human BEAS-2B cells (MTT, 72 h); type: cell-based; settings: human
# Protocol: as §2
# [10] = Cytotoxic assay against HUVEC cells (MTT, 72 h); type: cell-based, human; settings: human
# Protocol: as §2
# human thrombin = human thrombin (Homo sapiens (Human), UniProt P00734); test: Human protease biochemical activity assay: Thrombin activity testing kit; settings: read-out: Thrombin IC50
# Protocol: (§3) The biochemical activity of compounds against human proteases was determined using Cathepsin K inhibitor screening kit (K150-100), Cathepsin B inhibitor screening kit (K147-100), Thrombin activity testing kit (K373-100), Caspase-2 inhibitor screening kit (K152-100), and Cathepsin D inhibitor screening kit (K148-100) according to the instructions of the kits (Biovision, USA). All experiments were carried out in triplicate. All experimental data were analyzed using GraphPad Prism software.
# human cathepsin K = human cathepsin K (Homo sapiens (Human), UniProt P43235); test: Human protease biochemical activity assay: Cathepsin K inhibitor screening kit; settings: read-out: Cathepsin K IC50
# Protocol: as §3
# human cathepsin B = human cathepsin B (Homo sapiens (Human), UniProt P07858); test: Human protease biochemical activity assay: Cathepsin B inhibitor screening kit
# Protocol: as §3
# human caspase 2 = human caspase 2 (Homo sapiens (Human), UniProt P42575); test: Human protease biochemical activity assay: Caspase-2 inhibitor screening kit; settings: read-out: Caspase-2 IC50
# Protocol: as §3
# human cathepsin D = human cathepsin D (Homo sapiens (Human), UniProt P07339); test: Human protease biochemical activity assay: Cathepsin D inhibitor screening kit
# Protocol: as §3
# Sequence of human cathepsin D (P07339 65-412): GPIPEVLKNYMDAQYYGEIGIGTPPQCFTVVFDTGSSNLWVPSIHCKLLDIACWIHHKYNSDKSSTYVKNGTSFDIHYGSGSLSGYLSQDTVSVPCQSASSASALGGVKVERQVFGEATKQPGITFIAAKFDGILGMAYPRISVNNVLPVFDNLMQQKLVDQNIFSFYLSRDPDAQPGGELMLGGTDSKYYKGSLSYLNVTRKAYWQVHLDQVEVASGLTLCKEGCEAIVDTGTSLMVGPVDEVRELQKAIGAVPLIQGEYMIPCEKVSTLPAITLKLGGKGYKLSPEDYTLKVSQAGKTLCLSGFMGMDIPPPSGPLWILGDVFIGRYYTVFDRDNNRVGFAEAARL
# Sequence of human cathepsin K (P43235 115-329): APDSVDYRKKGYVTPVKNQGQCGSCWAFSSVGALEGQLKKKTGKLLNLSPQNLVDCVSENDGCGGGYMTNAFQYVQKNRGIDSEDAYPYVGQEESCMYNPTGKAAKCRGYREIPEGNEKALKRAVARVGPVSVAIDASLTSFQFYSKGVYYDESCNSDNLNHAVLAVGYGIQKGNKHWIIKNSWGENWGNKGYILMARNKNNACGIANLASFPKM
# Sequence of human caspase 2 (P42575 170-325): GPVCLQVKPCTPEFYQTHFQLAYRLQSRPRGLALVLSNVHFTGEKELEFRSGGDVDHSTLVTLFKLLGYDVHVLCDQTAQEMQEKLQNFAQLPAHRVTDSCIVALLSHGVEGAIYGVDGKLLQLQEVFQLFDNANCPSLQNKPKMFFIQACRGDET
# Sequence of human caspase 2 (P42575 348-452): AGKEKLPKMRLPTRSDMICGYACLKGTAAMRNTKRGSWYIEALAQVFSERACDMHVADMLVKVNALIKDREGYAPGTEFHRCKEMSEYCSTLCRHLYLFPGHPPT
# Sequence of hERG potassium ion channels (Q12809 whole entry, looked up): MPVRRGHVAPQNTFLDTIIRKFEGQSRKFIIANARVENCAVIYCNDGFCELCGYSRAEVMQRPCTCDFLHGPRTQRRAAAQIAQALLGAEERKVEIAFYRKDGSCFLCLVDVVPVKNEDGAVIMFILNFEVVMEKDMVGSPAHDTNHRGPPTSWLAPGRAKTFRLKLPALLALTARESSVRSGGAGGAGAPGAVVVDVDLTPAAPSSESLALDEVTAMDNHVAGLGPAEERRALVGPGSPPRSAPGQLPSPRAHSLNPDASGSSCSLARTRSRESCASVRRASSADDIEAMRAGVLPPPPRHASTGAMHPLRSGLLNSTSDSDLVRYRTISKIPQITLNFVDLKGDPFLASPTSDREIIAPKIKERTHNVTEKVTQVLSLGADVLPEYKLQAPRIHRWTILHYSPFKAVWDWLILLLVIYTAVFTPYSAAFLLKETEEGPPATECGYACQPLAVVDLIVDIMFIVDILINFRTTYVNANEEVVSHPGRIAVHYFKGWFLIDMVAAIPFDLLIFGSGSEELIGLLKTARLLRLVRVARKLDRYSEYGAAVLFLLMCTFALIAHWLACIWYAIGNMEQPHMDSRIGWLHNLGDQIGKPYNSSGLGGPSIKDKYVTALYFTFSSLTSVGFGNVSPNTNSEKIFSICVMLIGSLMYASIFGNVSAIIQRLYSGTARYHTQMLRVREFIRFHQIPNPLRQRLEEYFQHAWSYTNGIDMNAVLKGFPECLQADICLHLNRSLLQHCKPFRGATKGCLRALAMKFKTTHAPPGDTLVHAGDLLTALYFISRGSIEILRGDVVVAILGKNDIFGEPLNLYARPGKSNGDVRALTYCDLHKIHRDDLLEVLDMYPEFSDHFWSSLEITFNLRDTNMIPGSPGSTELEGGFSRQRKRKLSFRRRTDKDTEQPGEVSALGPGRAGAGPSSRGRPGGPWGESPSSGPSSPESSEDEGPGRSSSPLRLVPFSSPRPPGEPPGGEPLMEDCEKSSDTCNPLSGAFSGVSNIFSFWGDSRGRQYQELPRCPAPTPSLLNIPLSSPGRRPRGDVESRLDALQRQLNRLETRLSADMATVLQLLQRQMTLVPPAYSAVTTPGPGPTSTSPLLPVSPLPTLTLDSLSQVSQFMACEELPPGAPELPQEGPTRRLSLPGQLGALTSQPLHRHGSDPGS
Compound,CC50 (Vero E6 cells),CC50 [2],CC50 [3],Vssobs [5],"MRT inf (in vivo; iv, 1 mg/kg)","Tmax (in vivo; iv, 1 mg/kg)","MRT inf (in vivo; po, 10 mg/kg)",AUCINF—obs ([6]; i.v. 1 mg/kg),AUClast ([6]; i.v. 1 mg/kg),Cmax ([6]; i.v. 1 mg/kg),AUCINF—obs ([6]; p.o. 10 mg/kg),AUClast ([6]; p.o. 10 mg/kg),Cmax ([6]; p.o. 10 mg/kg),T1/2 ([6]; p.o. 10 mg/kg),IC50 [7],IC50 (human thrombin),IC50 (human cathepsin K),IC50 (human cathepsin B),IC50 (human caspase 2),IC50 (human cathepsin D),other results
"COc1cc(N)c(Cl)cc1C(=O)NC1CCN(CCCOc2ccc(F)cc2)CC1OC (stereo not shown) [Cisapride, reference compound]",,,,,,,,,,,,,,,,,,,,,The average tail current after administration [1]: 128.04 pA
C[C@@H](NC(=O)C1CCC(F)(F)CC1)C(=O)N[C@H](Cc1ccccc1)C(=O)C(=O)NCc1nccs1 [Compound 354],> 500 µM,> 500 µM,> 500 µM,1.31 ± 0.54 L/kg,0.93 ± 0.18 h,0.08 h,4.89 ± 1.14 h,1020.76 ± 261.50 ng·h/mL,1011.17 ± 258.49 ng·h/mL,1105.29 ± 69.99 ng/mL,2844.61 ± 326.65 ng·h/mL,2567.31 ± 678.74 ng·h/mL,306.27 ± 32.12 ng/mL,3.01 ± 0.91 h,,,,,,,"Human liver microsomes T1/2 [4]: 0.5935 h; half-life (in vivo; iv, 1 mg/kg): 2.42 ± 2.24 h; F % ([6]; p.o. 10 mg/kg): 25.39 ± 6.71%; Tmax ([6]; p.o. 10 mg/kg): 2.67 ± 1.15 h"
C[C@@H](NC(=O)C1CCC(F)(F)CC1)C(=O)N[C@H](Cc1ccco1)C(=O)C(=O)NCc1ccccn1 [Compound 362],,,,,,,,,,,,,,,34 ± 0.6 nM,,,,,,CC50 at 72 h [8]: > 500 µM; CC50 at 72 h [9]: > 500 µM; CC50 at 72 h [10]: > 500 µM; half-life at 1 µM [4]: 0.561 h
C[C@@H](NC(=O)CC1CC(F)(F)C1)C(=O)N[C@H](Cc1ccccc1)C(=O)C(=O)NCc1nccs1 [Compound 378],> 500 µM,> 500 µM,> 500 µM,3.65 ± 0.74 L/kg,3.19 ± 0.31 h,0.08 h,6.57 ± 0.38 h,2254.80 ± 672.40 ng·h/mL,2196.61 ± 634.20 ng·h/mL,1568.34 ± 201.27 ng/mL,8696.48 ± 1124.53 ng·h/mL,8180.11 ± 795.05 ng·h/mL,734.80 ± 101.62 ng/mL,5.84 ± 1.30 h,21.2 ± 0.3 nM,> 100 µM,> 100 µM,> 100 µM,> 100 µM,> 100 µM,"bioavailability (in vivo; po, 10 mg/kg): 7.95 ± 2.8%; CL ([6]; i.v. 1 mg/kg): 7.95 ± 2.80 mL/min/kg; T1/2 ([6]; i.v. 1 mg/kg): 5.47 ± 0.77 h; Tmax ([6]; p.o. 10 mg/kg): 1.33 ± 0.58 h"
C[C@@H](NC(=O)C1CCC(F)(F)C1)C(=O)N[C@H](Cc1ccccc1)C(=O)C(=O)NCc1nccs1 (stereo partly shown) [Compound 379],> 500 µM,> 500 µM,> 500 µM,2.49 ± 1.61 L/kg,1.26 ± 0.42 h,0.08 h,5.9 ± 0.79 h,1329.00 ± 555.62 ng·h/mL,1292.28 ± 530.92 ng·h/mL,1317.59 ± 168.03 ng/mL,6903.48 ± 2619.87 ng·h/mL,6721.57 ± 2461.95 ng·h/mL,634.54 ± 161.39 ng/mL,4.15 ± 1.48 h,22.5 ± 0.7 nM,> 100 µM,> 100 µM,> 100 µM,> 100 µM,> 100 µM,Human liver microsomes T1/2 [4]: 0.7035 h; CL ([6]; i.v. 1 mg/kg): 14.52 ± 7.25 mL/min/kg; T1/2 ([6]; i.v. 1 mg/kg): 1.90 ± 0.27 h; F % ([6]; p.o. 10 mg/kg): 52.01 ± 19.05%; Tmax ([6]; p.o. 10 mg/kg): 1.67 ± 0.58 h
COC[C@@H](NC(=O)C1CCC(F)(F)CC1)C(=O)N[C@H](Cc1ccccc1)C(=O)C(=O)NCc1nccs1 [Compound 395],132 µM,159 µM,129 µM,5.25 ± 2.13 L/kg,3.55 ± 0.52 h,0.08 h,7.63 ± 0.57 h,2829.72 ± 958.55 ng·h/mL,2574.49 ± 819.96 ng·h/mL,1697.71 ± 237.45 ng/mL,13950.66 ± 782.95 ng·h/mL,12675.30 ± 1265.92 ng·h/mL,1006.49 ± 114.61 ng/mL,6.64 ± 1.17 h,18.4 ± 1.3 nM,> 100 µM,> 100 µM,> 100 µM,> 100 µM,> 100 µM,"Human liver microsomes T1/2 [4]: 0.6498 h; Tmax (in vivo; po, 10 mg/kg): 4 h; CL ([6]; i.v. 1 mg/kg): 6.48 ± 2.63 mL/min/kg; T1/2 ([6]; i.v. 1 mg/kg): 9.49 ± 2.16 h; F % ([6]; p.o. 10 mg/kg): 49.23 ± 4.92%"
COC[C@@H](NC(=O)CC1CC(F)(F)C1)C(=O)N[C@H](Cc1ccccc1)C(=O)C(=O)NCc1nccs1 [Compound 400],> 500 µM,> 500 µM,> 500 µM,3.28 ± 1.17 L/kg,3.18 ± 0.52 h,0.08 h,6.47 ± 0.5 h,2394.12 ± 644.94 ng·h/mL,2357.97 ± 638.69 ng·h/mL,1352.62 ± 116.10 ng/mL,11166.54 ± 364.00 ng·h/mL,10791.37 ± 123.59 ng·h/mL,805.87 ± 75.43 ng/mL,4.67 ± 1.04 h,10.2 ± 0.1 nM,> 100 µM,> 100 µM,> 100 µM,> 100 µM,> 100 µM,"Human liver microsomes T1/2 [4]: 0.5067 h; Tmax (in vivo; po, 10 mg/kg): 2 h; CL ([6]; i.v. 1 mg/kg): 7.30 ± 1.90 mL/min/kg; T1/2 ([6]; i.v. 1 mg/kg): 5.09 ± 0.57 h; F % ([6]; p.o. 10 mg/kg): 45.77 ± 0.52%"
C[C@@H](NC(=O)CC1CC1(F)F)C(=O)N[C@H](Cc1ccccc1)C(=O)C(=O)NCc1cscn1 (stereo partly shown) [Compound 417],,,,,,,6.55 ± 0.39 h,,,,,,,,22.1 ± 3 nM,> 100 µM,> 100 µM,> 100 µM,> 100 µM,> 100 µM,"CC50 at 72 h [8]: > 500 µM; CC50 at 72 h [9]: > 500 µM; CC50 at 72 h [10]: > 500 µM; half-life at 1 µM [4]: 0.534 h; AUC(0-inf) (in vivo; po, 10 mg/kg): 5070 ± 2290 ng·h/mL; AUC(0-t) (in vivo; po, 10 mg/kg): 4890 ± 2320 ng·h/mL; Cmax (in vivo; po, 10 mg/kg): 441 ± 225 ng/mL; Tmax (in vivo; po, 10 mg/kg): 3.33 ± 1.15 h; half-life (in vivo; po, 10 mg/kg): 5.07 ± 1.78 h"
